Source: ChEMBL document CHEMBL4483862, “Open-source discovery of chemical leads for next-generation chemoprotective antimalarials” (2018)

Tested on: Plasmodium berghei
Assay: Luciferase/luciferin-expressing antifolate-resistant parasites were used to infect a culture of HepG2 cells that were pre-incubated with compounds. Infected hepatocytes emit light due to the luciferase reaction. Assay results are presented as the percent inhibition of light emission compared to control. […]
Type: functional
Settings: sporozoite; for IC90: read-out: LUCIFERASE INFECTION ASSAY - IC90
[1] = read-out: LUCIFERASE INFECTION ASSAY - IC50

SMILES	IC90	IC50 [1]	further results
COC(=O)c1cc(C#N)c(Sc2ncc([N+](=O)[O-])s2)nc1C(OC)OC	> 8.32 µM	–	IC50 (FFLUC_HILL_SLOPE 0.469, FFLUC_R_SQUARED 0.297, HEPG2TOX_HILL_SLOPE 12.3, HEPG2TOX_R_SQUARED 0.829, PBLUC_HILL_SLOPE 2.84, PBLUC_R_SQUARED 0.141, read-out: LUCIFERASE INFECTION ASSAY - IC50): > 8.32 µM
Cc1c(C(=O)OCC(=O)N(Cc2ccccc2)Cc2ccccc2)sc2nc3n(c(=O)c12)CCC3	3.43 µM	3.04 µM	–
CC(C)NC(=O)Nc1ccc(OCc2ncc(C(F)(F)F)cc2Cl)cc1	> 8.51 µM	–	IC50 (FFLUC_HILL_SLOPE 8.07, FFLUC_R_SQUARED 0.113, HEPG2TOX_HILL_SLOPE 6.87, HEPG2TOX_R_SQUARED 0.428, PBLUC_HILL_SLOPE 0.555, PBLUC_R_SQUARED 0.618, read-out: LUCIFERASE INFECTION ASSAY - IC50): 1.56 µM
CNS(=O)(=O)c1cc(C(=O)OCc2ccc(-c3ccccc3C#N)cc2)n(C)c1	> 10 µM	–	IC50 (HEPG2TOX_HILL_SLOPE 9.24, HEPG2TOX_R_SQUARED 0.528, PBLUC_HILL_SLOPE 2.62, PBLUC_R_SQUARED 0.748, read-out: LUCIFERASE INFECTION ASSAY - IC50): 5.4 µM
CO/N=C1\CCCc2c(C(=O)N/N=C/c3ccc(Cl)cc3)sc(SC)c21	1.51 µM	–	IC50 (HEPG2TOX_HILL_SLOPE 0.585, HEPG2TOX_R_SQUARED 0.788, PBLUC_HILL_SLOPE 2.34, PBLUC_R_SQUARED 0.687, read-out: LUCIFERASE INFECTION ASSAY - IC50): 0.59 µM
N#CC(c1ccccc1)c1ccc(NC(=S)NCC2CCCO2)cc1Cl (stereo unspecified)	> 10 µM	–	IC50 (PBLUC_HILL_SLOPE 1.33, PBLUC_R_SQUARED 0.895, read-out: LUCIFERASE INFECTION ASSAY - IC50): 4.42 µM
N#Cc1ccc(C(=O)Nc2nc(-c3c[nH]c4ccccc34)cs2)cc1	> 10 µM	–	IC50 (PBLUC_HILL_SLOPE 15.6, PBLUC_R_SQUARED 0.4, read-out: LUCIFERASE INFECTION ASSAY - IC50): 9.53 µM
O=C(Nc1cccc(C(F)(F)F)c1)Nc1ccccc1Sc1c(Cl)cncc1Cl	> 7.2 µM	–	IC50 (HEPG2TOX_HILL_SLOPE 7.44, HEPG2TOX_R_SQUARED 0.649, PBLUC_HILL_SLOPE 2.82, PBLUC_R_SQUARED 0.349, read-out: LUCIFERASE INFECTION ASSAY - IC50): 4.94 µM
Cc1cccc(Nc2cc3[nH]c(-c4ccc(C(=O)N(C)C)cc4)cc3cn2)c1	> 10 µM	6.24 µM	–
COc1cc(Nc2ncnc3ccsc23)cc(OC)c1	2.61 µM	0.968 µM	–
CC(=O)Nc1cccc(-c2cn3c(-c4ccc(Oc5ccccc5)cc4)cnc3cn2)c1	> 7.85 µM	–	IC50 (HEPG2TOX_HILL_SLOPE 0.0216, HEPG2TOX_R_SQUARED 0.0103, PBLUC_HILL_SLOPE 2.46, PBLUC_R_SQUARED 0.352, read-out: LUCIFERASE INFECTION ASSAY - IC50): > 7.85 µM
Cc1cccc(-c2cn3c(-c4cccc(O)c4)cnc3cn2)c1C	> 10.5 µM	–	IC50 (PBLUC_HILL_SLOPE 4.97, PBLUC_R_SQUARED 0.533, read-out: LUCIFERASE INFECTION ASSAY - IC50): 8.4 µM
CCc1cccc(NC(=O)C[n+]2c3n(c4ccc(C(F)(F)F)cc42)CCCCC3)c1	8.61 µM	2.8 µM	–
Cc1noc2nc(C3CC3)cc(C(=O)Nc3cccc(C(F)(F)F)c3)c12	1.12 µM	–	IC50 (PBLUC_HILL_SLOPE 17.7, PBLUC_R_SQUARED 0.604, read-out: LUCIFERASE INFECTION ASSAY - IC50): 0.99 µM
COc1ccccc1C(CCNCc1ccc(F)cc1)c1ccco1 (stereo unspecified)	1.66 µM	–	IC50 (HEPG2TOX_HILL_SLOPE 6.69, HEPG2TOX_R_SQUARED 0.485, PBLUC_HILL_SLOPE 6.64, PBLUC_R_SQUARED 0.691, read-out: LUCIFERASE INFECTION ASSAY - IC50): 1.19 µM
Cc1cc(=O)oc2cc(NCC(=O)Nc3cc4c(cc3Cl)OCCO4)ccc12	> 10 µM	> 10 µM	–
FC(F)(F)c1cccc(NC(S)=Nc2ccc(Cl)c(Cl)c2)c1	> 9.04 µM	> 9.04 µM	–
Cc1cc(C)c(CSCCNC(=O)Nc2ccccc2)c(C)c1	> 10 µM	–	IC50 (PBLUC_HILL_SLOPE 3.02, PBLUC_R_SQUARED 0.314, read-out: LUCIFERASE INFECTION ASSAY - IC50): 4.91 µM
Cc1cc(C(=O)CN(Cc2ccco2)S(=O)(=O)/C=C/c2ccccc2)c(C)n1C	> 10 µM	–	IC50 (HEPG2TOX_HILL_SLOPE 3.54, HEPG2TOX_R_SQUARED 0.932, PBLUC_HILL_SLOPE 9.57, PBLUC_R_SQUARED 0.198, read-out: LUCIFERASE INFECTION ASSAY - IC50): 8.84 µM
COc1ccc(-c2cc(=O)n3nc(C)c(-c4ccc(F)cc4)c3[nH]2)cc1	3.24 µM	–	IC50 (HEPG2TOX_HILL_SLOPE 2.56, HEPG2TOX_R_SQUARED 0.662, PBLUC_HILL_SLOPE 58.3, PBLUC_R_SQUARED 0.0989, read-out: LUCIFERASE INFECTION ASSAY - IC50): 3.12 µM
CCc1ccc(S(=O)(=O)Nc2cc(Sc3ccc(C)cc3)c(O)c3ccccc23)cc1	> 10 µM	–	IC50 (PBLUC_HILL_SLOPE 1.24, PBLUC_R_SQUARED 0.466, read-out: LUCIFERASE INFECTION ASSAY - IC50): 5.98 µM
O=C(CN1CCN(C(=O)CCc2cnn(-c3ccccc3)c2)CC1)NC1CC1	> 10 µM	> 10 µM	–

SMILES	IC90	IC50 [1]	further results
O=S(=O)(Cc1ccccc1)N1CCN(c2ncnc3sc(-c4ccccc4)cc23)CC1	> 10 µM	> 10 µM	–
O=c1cc(CNc2ccccc2N2CCCCC2)nc2sccn12	> 10 µM	9.19 µM	–
CN(C)c1cccc(-c2cnc3sc(NCc4ccccc4)nn23)c1	3.57 µM	–	IC50 (PBLUC_HILL_SLOPE 15, PBLUC_R_SQUARED 0.389, read-out: LUCIFERASE INFECTION ASSAY - IC50): 3.08 µM
CCn1c2ccccc2c2cc(NC(=O)C3CCCN(c4ncccn4)C3)ccc21 (stereo unspecified)	2.28 µM	–	IC50 (HEPG2TOX_HILL_SLOPE 1.64, HEPG2TOX_R_SQUARED 0.977, PBLUC_HILL_SLOPE 1.41, PBLUC_R_SQUARED 0.865, read-out: LUCIFERASE INFECTION ASSAY - IC50): 0.477 µM
Cc1c(S(=O)(=O)c2ccc(Cl)cc2)csc1C(=O)Nc1ccccc1Cl	> 7.74 µM	–	IC50 (FFLUC_HILL_SLOPE 0.988, FFLUC_R_SQUARED 0.0286, PBLUC_HILL_SLOPE 1.65, PBLUC_R_SQUARED 0.324, read-out: LUCIFERASE INFECTION ASSAY - IC50): 6.99 µM
Fc1ccc(CNCC2(c3ccnc(-c4ccc(Cl)cc4)c3)CC2)cc1	> 10 µM	–	IC50 (PBLUC_HILL_SLOPE 1.81, PBLUC_R_SQUARED 0.142, read-out: LUCIFERASE INFECTION ASSAY - IC50): > 10 µM
N#C/C(=N\Nc1ccc(OC(F)(F)F)cc1)C(=O)C1CC1	> 11.1 µM	–	IC50 (HEPG2TOX_HILL_SLOPE 1.44, HEPG2TOX_R_SQUARED 0.96, PBLUC_HILL_SLOPE 2.87, PBLUC_R_SQUARED 0.372, read-out: LUCIFERASE INFECTION ASSAY - IC50): 7.46 µM
Cc1ccn2cc(C(=O)N3CCN(Cc4ccc(C(F)(F)F)cc4)CC3)nc2c1	3.77 µM	–	IC50 (HEPG2TOX_HILL_SLOPE 2.22, HEPG2TOX_R_SQUARED 0.687, PBLUC_HILL_SLOPE 18.4, PBLUC_R_SQUARED 0.747, read-out: LUCIFERASE INFECTION ASSAY - IC50): 3.35 µM
COc1cc2c(c(OC)c1OC)Cc1cc(OC)c(OC)c(OC)c1C2	7.66 µM	–	IC50 (PBLUC_HILL_SLOPE 3.89, PBLUC_R_SQUARED 0.32, read-out: LUCIFERASE INFECTION ASSAY - IC50): 4.36 µM
OCCCNc1ccc2ncc(-c3cccc(C(F)(F)F)c3)n2n1	1.21 µM	–	IC50 (HEPG2TOX_HILL_SLOPE 0.946, HEPG2TOX_R_SQUARED 0.925, PBLUC_HILL_SLOPE 15.6, PBLUC_R_SQUARED 0.717, read-out: LUCIFERASE INFECTION ASSAY - IC50): 1.05 µM
Nc1cccc(-c2cn3c(-c4ccc5c(c4)OCO5)cnc3cn2)c1	8.12 µM	–	IC50 (PBLUC_HILL_SLOPE 4.69, PBLUC_R_SQUARED 0.303, read-out: LUCIFERASE INFECTION ASSAY - IC50): 5.08 µM
c1ccc(Nc2nc(-c3ccc4c(c3)CCC4)cs2)nc1	> 10 µM	–	IC50 (PBLUC_HILL_SLOPE 1.40, 0.464, PBLUC_R_SQUARED 0.303, 0.681, read-out: LUCIFERASE INFECTION ASSAY - IC50): 4.84 µM
O=C(c1ccc2[nH]c3c(c2c1)CCCC3)N1CCN(Cc2nc(-c3cccs3)no2)CC1	> 10 µM	> 10 µM	–
Cc1ccc(-n2c(C)cc(/C=C(\C#N)c3nc4ccccc4s3)c2C)cc1C	> 10 µM	> 10 µM	–
CC(C)(C)c1cc(C(c2ccccn2)N2CCCC2)cc(C(C)(C)C)c1O (stereo unspecified)	> 10 µM	> 10 µM	–
C/C(=N\NC(=O)c1ccc(COc2c(Br)cc(C)cc2Br)cc1)c1ccc(O)cc1O	1.28 µM	1.12 µM	–
Cc1ccc(-n2nnnc2SCc2c(F)cccc2Cl)c(C)c1	> 9.46 µM	–	IC50 (HEPG2TOX_HILL_SLOPE 2.61, HEPG2TOX_R_SQUARED 0.917, PBLUC_HILL_SLOPE 6.38, PBLUC_R_SQUARED 0.299, read-out: LUCIFERASE INFECTION ASSAY - IC50): 8.85 µM
COc1ccc(C)cc1C(C)NC(=O)c1cc2ccsc2[nH]1 (stereo unspecified)	> 10 µM	> 10 µM	–
COc1ccccc1C(=O)N(c1ccc(F)cc1)c1nc2ccccc2s1	> 10 µM	> 10 µM	–
Cc1ccc(OCc2n[nH]c(=S)n2C2CCCCC2)c2c1CCC2	> 9.61 µM	–	IC50 (PBLUC_HILL_SLOPE 1.42, PBLUC_R_SQUARED 0.362, read-out: LUCIFERASE INFECTION ASSAY - IC50): > 9.61 µM
COc1cncc(-c2cc3c(cn2)nc(NCCc2cc(OC)ccc2OC)n3C)c1	8.42 µM	–	IC50 (HEPG2TOX_HILL_SLOPE 0.77, HEPG2TOX_R_SQUARED 0.89, PBLUC_HILL_SLOPE 0.989, PBLUC_R_SQUARED 0.368, read-out: LUCIFERASE INFECTION ASSAY - IC50): 0.913 µM
